# Results taken from publication PMC5697763 (Bioconjugate chemistry, 2016).
# Values joined by “and” are separate entries in the source; they are usually repeats but may differ in a detail not shown here. Equal entries are not always repeated. Where two headings read alike, the source gives them in different places.
# Biological target: LMCA1 (Listeria monocytogenes serovar 1/2a, UniProt Q8Y8Q5)
# Assay: biochemical
# Type: biochemical
# Sequence of LMCA1 (Q8Y8Q5 whole entry): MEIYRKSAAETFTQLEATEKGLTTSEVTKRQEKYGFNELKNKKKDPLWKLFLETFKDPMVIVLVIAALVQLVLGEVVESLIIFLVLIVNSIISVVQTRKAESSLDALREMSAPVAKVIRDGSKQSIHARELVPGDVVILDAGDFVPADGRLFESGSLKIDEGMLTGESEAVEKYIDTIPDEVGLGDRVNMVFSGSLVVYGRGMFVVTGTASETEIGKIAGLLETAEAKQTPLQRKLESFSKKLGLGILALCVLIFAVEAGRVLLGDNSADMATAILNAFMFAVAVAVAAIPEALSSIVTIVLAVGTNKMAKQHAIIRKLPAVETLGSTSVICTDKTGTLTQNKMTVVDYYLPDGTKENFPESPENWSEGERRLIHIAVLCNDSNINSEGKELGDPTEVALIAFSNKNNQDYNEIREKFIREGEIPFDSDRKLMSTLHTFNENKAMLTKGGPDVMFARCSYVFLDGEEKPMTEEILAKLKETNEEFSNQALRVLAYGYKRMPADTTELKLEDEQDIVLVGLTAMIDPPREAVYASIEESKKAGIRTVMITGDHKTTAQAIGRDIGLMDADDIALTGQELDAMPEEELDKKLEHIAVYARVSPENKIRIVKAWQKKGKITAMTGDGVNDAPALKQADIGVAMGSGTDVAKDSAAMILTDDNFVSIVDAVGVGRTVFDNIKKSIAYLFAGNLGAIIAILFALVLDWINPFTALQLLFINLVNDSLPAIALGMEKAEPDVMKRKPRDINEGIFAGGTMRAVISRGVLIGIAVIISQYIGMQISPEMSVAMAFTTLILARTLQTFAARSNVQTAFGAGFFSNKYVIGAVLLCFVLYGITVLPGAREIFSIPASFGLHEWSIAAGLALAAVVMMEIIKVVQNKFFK
Structure (SMILES),IC50,Hill coefficient (absence of NaF (H2O)),Hill coefficient (constant NaF concentration of 0.5 mM),Hill coefficient
[Be+2] [BeSO4],27 ± 5 µM,−0.72 ± 0.08,−1.1 ± 0.1,
F [NaF],2300 ± 200 µM,,,−2.4 and −2.4 ± 0.4
